This is an account of results in ChEMBL document CHEMBL1121852, “Nonsteroidal antiinflammatory agents. 3. Synthesis of the positional isomers of 4'-chloro-5-methoxy-3-biphenylylacetic acid and their antiinflammatory and analgesic activities” (J Med Chem, 1981).

For one data set, the system named is Mus musculus. The data set can be described thus: Tested for inhibitory activity after administration of compound at 50 mg/kg perorally using AcOH writhing method. It counts as functional. Conditions: route oral.
Data set [1] can be described thus: Tested for acute toxicity after administration of compound at 50 mg/kg intraperitoneally in mice. It counts as organism-based. Also on record: dose 50 mg/kg, route intraperitoneal. The note with it: mouse, in vivo, ip.
For data set [2], the system named is Rattus norvegicus. The data set can be described thus: Percent inhibition of carrageenan induced rat paw edema 3 hr after a peroral administration of 20 mg/kg. In kind it is functional. The note with it: route oral.
Data set [3] deals with Rattus norvegicus. The data set can be described thus: Percent inhibition of carrageenan induced rat paw edema 3 hr after a peroral administration of 50 mg/kg. It counts as functional. Conditions: route oral. (Carrageenan injected into the paw causes an acute inflammation.)
Data set [4] deals with Rattus norvegicus. The experiment in a line: Percent inhibition of carrageenan induced rat paw edema 3 hr after a peroral administration of 10 mg/kg. It counts as functional. The note with it: route oral.
The test system of data set [5] is Rattus norvegicus. The data set can be described thus: Percent inhibition after administration at 2 mg/kg perorally using carrageenan induced rat paw edema method. The note with it: route oral. It counts as functional.
For data set [6], the system named is Rattus norvegicus. The data set can be described thus: Percent inhibition of carrageenan induced rat paw edema 3 hr after a peroral administration of 0.5 mg/kg. It counts as functional. The note with it: route oral.

Consider `COc1ccc(CC(=O)O)cc1-c1ccc(Cl)cc1`, for which it took a dose of 26.7 mg/kg to reach the 50% effect level in the data set on Mus musculus (ED50). Further, in data set [1], the median lethal dose (LD50) (commonly the dose expected to kill half of the subjects tested) worked out at 673 mg/kg. In the data set with Rattus norvegicus [2], testing at 20 mg/kg gave an inhibition in vivo of 19%. For the same compound, the inhibition in vivo (commonly how much of the control response was suppressed) at 50 mg/kg in the data set on Rattus norvegicus [3] was found to be 49%.
Regarding `COc1cccc(CC(=O)O)c1-c1ccc(Cl)cc1`, the ED50 (in general, the dose that gives a 50% effect, or the effect in half of the subjects) in the data set with Mus musculus is greater than 50 mg/kg. The 50% lethal dose (LD50) in data set [1] was determined as 566 mg/kg. Further, testing at 50 mg/kg in the data set with Rattus norvegicus [3] gave an inhibition in vivo of 0%.
Taken in the same sequence, the figures for `COc1cccc(-c2ccc(Cl)cc2)c1CC(=O)O` were greater than 50 mg/kg, 476 mg/kg and 0%.
Taken in the same sequence, the figures for `COc1ccc(CC(=O)O)c(-c2ccc(Cl)cc2)c1` were greater than 50 mg/kg, 566 mg/kg and 0%.
Taken in the same sequence, the figures for `COc1ccc(-c2ccc(Cl)cc2)cc1CC(=O)O` were greater than 50 mg/kg, 566 mg/kg and 0%.
`COc1c(CC(=O)O)cccc1-c1ccc(Cl)cc1` yielded an ED50 in the data set on Mus musculus greater than 50 mg/kg. The compound further came in with an LD50 in data set [1] of 283 mg/kg. The compound further had an inhibition in vivo at 50 mg/kg with Rattus norvegicus [3] of 16%.
Consider `COc1cc(CC(=O)O)cc(-c2ccc(Cl)cc2)c1`, for which, in the data set on Mus musculus, it took a dose of 16.1 mg/kg to reach the 50% effect level (ED50). The LD50 in data set [1] was found to be 570 mg/kg. The inhibition in vivo at 10 mg/kg in the data set with Rattus norvegicus [4] turned out to be 39%. In the data set with Rattus norvegicus [2], this compound gave an inhibition in vivo at 20 mg/kg of 65%. In addition, in the data set on Rattus norvegicus [3], the inhibition in vivo at 50 mg/kg turned out to be 53%.
Compound `COc1cc(-c2ccc(Cl)cc2)ccc1CC(=O)O` gave an ED50 with Mus musculus greater than 50 mg/kg. The compound further returned an LD50 in data set [1] of 400 mg/kg. In the data set with Rattus norvegicus [3], testing at 50 mg/kg gave an inhibition in vivo of 27%.
In the data set on Mus musculus, `COc1ccc(-c2ccc(Cl)cc2)c(CC(=O)O)c1` showed a 50% effective dose (ED50) greater than 50 mg/kg. Besides, the LD50 in data set [1] was 566 mg/kg. Also, in the data set with Rattus norvegicus [3], the inhibition in vivo at 50 mg/kg worked out at 13%.
As for `COc1cc(CC(=O)O)ccc1-c1ccc(Cl)cc1`, the 50% effect level in the data set on Mus musculus (ED50) was put at a dose of 35.1 mg/kg. The same compound showed a 50% lethal dose (LD50) in data set [1] of 238 mg/kg. This compound yielded an inhibition in vivo at 20 mg/kg in the data set with Rattus norvegicus [2] of 27%. In the data set with Rattus norvegicus [3], this compound came in with an inhibition in vivo at 50 mg/kg of 38%.
As to `COc1ccc2c(c1)c(CC(=O)O)c(C)n2C(=O)c1ccc(Cl)cc1` [INDOMETHACIN], the inhibition in vivo at 50 mg/kg with Rattus norvegicus [3] came out at 45%. This compound also returned an inhibition in vivo at 2 mg/kg with Rattus norvegicus [5] of 25%. Also, the inhibition in vivo at 0.5 mg/kg in the data set on Rattus norvegicus [6] amounted to 19%.
